Experimental data reported in patent US20210284691A1, “CBX8 CHROMDOMAIN INHIBITORS AND THE USES THEREOF” (Purdue Research Foundation, priority 2019, published 2021).
One block for each molecule: values may come before it. Square brackets hold non-standard residues; d marks the D form. Primed or numbered codes have the meaning given here. Ends that are not written are not given here. Peptide text beside a SMILES is read from it. * marks the point of attachment. Isoxazole3carbonyl(5-Me) = Cc1cc(C(=O)*)no1; Tyr(3-Cl) = N[C@@H](Cc1ccc(O)c(Cl)c1)C(=O)O; Lys(Et2) = CCN(CC)CCCC[C@H](N)C(=O)O; PEG4′ = not defined here; NH(propargyl) = C#CCN*

Key:
CBX8 regulated gene = assay: Gene expression of a CBX8 regulated gene in HEK293T cells; assay type: cell-based, Human; conditions: high compound concentrations
CBX8 ChD = biological target: T1, CBX8 ChD (Homo sapiens, UniProt Q9HC52); assay: Direct fluorescence polarization (FP) binding assay; conditions: from Kd values
T1 construct: CBX chromodomain constructs; host or cells: E. coli BL21 CodonPlus RIL
T1 sequence (Q9HC52 11-69 limits assumed): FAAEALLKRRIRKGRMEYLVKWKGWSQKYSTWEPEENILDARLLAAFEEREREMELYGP
Procedure: Bacterial growth was completed at 37° C. in LB media to OD600=2.0, followed by reducing the temperature to 16° C. over 30-60 min and induced with 1 mM IPTG for 16 h. Cells were collected by centrifugation at 6000 rpm for 20 min and resuspended in ChD binding buffer (20 mM Tris, pH 8, 150 mM NaCl, 0.01% Tween-20, 20 mM imidazole) with 1.0 mM PMSF. Bacteria pellets were stored at −80° C. until needed. Pellets were thawed on ice for 10 min in ChD binding buffer, and shaked at 4° C. supplemented with 100 μg/mL lysozyme, 1 mg/mL CHAPS and 1 mM PMSF, for 30 min. Cells were subsequently lysed by sonication (15 W, 30 s on, followed by 30 s off, twice, followed by 20 W for 1 min). The solubilized fraction was collected by centrifugation at 15000 rpm for 40 min at 4° C. Meanwhile, Ni-NTA Agarose resin (QIAGEN, Venlo, Netherlands) was washed with H2O and equilibrated with ChD binding buffer. The soluble fraction was incubated with the prewashed Ni-NTA agarose resin at 4° C. for 2 h. The resin was then washed 3× with ChD purification buffer (20 mM Tris, pH 8, 150 mM NaCl, 0.01% Tween-20, 1 mM PMSF). Proteins were eluted by the addition of 0.5 M imidazole to ChD purification buffer. The elution was diluted with 30% glycerol, flash frozen, and stored at −80° C. until needed. Protein purity was assessed by SDS-PAGE and concentration was determined by the Pierce 660 kit (Thermo Scientific).
Direct fluorescence polarization (FP) binding assay of PSL hits against PcG CBX ChDs. FP assays were conducted as above with slight modifications. Alkyne peptides described above were conjugated with a fluorescein group(5-/6-FAM) through copper catalyzed click reaction as previously described. The FAM-labeled peptide was kept constant at 100 nM. The CBX ChD proteins were titrated by 2-fold series dilutions in the assays. The highest protein concentrations, at which FAM-peptide was completely bound, used for each CBX in the direct binding assays depends on the binding affinity of the peptides. Assays were performed for each peptide in four replicates.

THP1 cells = conditions: 50 μM
[1] = biological target: T2, CBX8 binding to chromatin (Homo sapiens, UniProt Q9HC52); assay: ChIP-qPCR in Hs68 fibroblast cells; assay type: cell-based; conditions: 120 μM
T2 construct: endogenous in cells; host or cells: Hs68 fibroblasts (A16); HEK293T (A19); K562 (A23)
T2 sequence (Q9HC52 1-389): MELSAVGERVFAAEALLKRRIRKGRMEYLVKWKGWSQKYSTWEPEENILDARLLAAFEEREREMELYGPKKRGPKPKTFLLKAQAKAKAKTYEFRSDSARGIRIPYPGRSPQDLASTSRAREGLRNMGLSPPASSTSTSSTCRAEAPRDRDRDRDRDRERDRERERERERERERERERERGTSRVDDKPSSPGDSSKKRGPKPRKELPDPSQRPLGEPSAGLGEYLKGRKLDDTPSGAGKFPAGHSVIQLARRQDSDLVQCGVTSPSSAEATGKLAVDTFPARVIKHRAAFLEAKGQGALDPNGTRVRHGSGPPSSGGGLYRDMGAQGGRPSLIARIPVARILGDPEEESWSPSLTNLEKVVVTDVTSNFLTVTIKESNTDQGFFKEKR
Procedure: ChIP: Hs68 cells were seeded at 4×10^6 in a 10 cm cell culture plates 16 hours prior to treatment. […] ChIP was performed as described in Connelly et al., 2018. Birefly, cells were washed with PBS and fixed on the plate with CiA Fix buffer (50 mM HEPES, pH 8.0, 1 mM EDTA, 0.5 mM ETGA, 100 mM NaCl) and 1% formaldehyde for 10 min at room temperature. Crosslinking was quenched with 0.125 M glycine for 5 min at 4° C. Cells were washed once with PBS and lifted off the plate then resuspended in CiA NP Rinse buffer 1 (50 mM HEPES pH 8.0, 140 mM NaCl, 1 mM EDTA, 10% glycerol, 0.5% NP-40, 0.25% Triton X) for 10 min. Cells were pelleted at 1200×g for 5 min at 4° C. The supernatant was removed, and the cells were resuspended in CiA NP rinse buffer 2 (10 mM Tris pH 8.0, 1 mM EDTA, 0.5 mM EGTA, 200 mM NaCl). Cells were collected by centrifugation, 1200×g for 5 min. Supernatant was removed and the cells were washed twice with shearing buffer (0.1% SDS, 1 mM EDTA, 10 mM Tris HCl, pH 8.0). Cells were resuspended in shearing buffer and sonicated for 7 min with the probe (Branson). Lysate was centrifuged at 21,000×g for 15 min to remove debris. Supernatant was collected and pre-cleared overnight with Protein A/G magnetic beads (Pierce). […]
qPCR: qPCR was performed on the isolated ChIP DNA using SYBR master mix (Thermo) and run on the BioRad CFX thermo cycler. […] Enrichment was determined by percent input. […]

endogenous CBX proteins = assay: Peptide pull-down / chemoprecipitation from HEK293T lysates; assay type: binding, Human
Procedure: 2×10^7 HEK293T cells were seeded in a 15 cm cell culture dish overnight. Next day, media was removed and cells were washed with PBS. Cells were lysed with 5 ml Buffer A (25 mM HEPES, 5 mM KCl, 25 mM MgCl2, 0.05 mM EDTA, 10% glycerol, 0.1% NP-40, plus protease inhibitors) on ice for 15 minutes. The nuclei were pelleted and re-suspended in IP buffer (25 mM Tris, 300 mM NaCl, 1 mM EDTA, 1% NP-40, plus protease inhibitors) for 15 minutes. The sample were spun down at 15,000 rpm at 4° C. for 5 min and lysates were transferred to separate tubes. Protein concentrations were determined by Pierce 660 nm kit (Thermo Scientific). Streptavidin M-270 Dynabeads (Solulink, San Diego, Calif.) was washed three times with Pulldown Binding Buffer (50 mM Tris, 150 mM NaCl, 0.5 mM DTT). 10× of biotinylated peptides SW2_110A-B, as well as biotinylated H3K27me3 (21-44) and biotinylated H3 (21-44), were incubated with […] pre-equilibriumed beads at 4° C. for an hour. After biotin-peptide being immobilized on resin, extra unbound peptides were removed by 3× washing, and 200 μg of nuclear lysate supernatant was added to each washed and immobilized biotinylated peptide (biotin-H3, biotin-H3K27me3, SW2_110A-B). The mixture was rotated at 4° C. for 2 hours. Then, the depleted lysate was removed and the beads were washed with Pulldown Binding Buffer 3× at 4° C. […] ImageJ was employed to quantitate the protein bands.

LNCaP_NED cells = assay: LNCaP_NED cell proliferation, viability and morphology; assay type: cell-based; conditions: enzalutamide treatment
Description: FIG. 12A). Neuroendocrine differentiation (NED) of prostate cancer induced by androgen deprivation. Representative pictures of LNCaP cells treated with normal media or charcoal-stripped serum (CSS) media for 6 days to induce neuroendocrine differentiation (LNCaP_NED). FIG. 12B). Transcriptional fold changes of KLK3/TMPRSS2/ENO2/CHGA were quantified normalized to control gene YWHAZ upon CSS media treatment for 6 or 9 days. FIG. 12C). Western blotting of CBX paralogs in LNCaP and LNCaP_NED cells generated from 14-day CSS treatment. FIG. 12D). Cell proliferation of LNCaP_NED following 5 days incubation with 2 or 10 μM SW2_152F. DMSO was used as negative control. FIG. 12E). LNCaP_NED cells were treated with 10 μM SW2_152F for 24 h-96 h. Cell morphology pictures were captured starting from 24 h. Average cell size were plotted at 24 h or 48 h for both DMSO group and compound treated group. FIG. 12F). LNCaP_NED cells were treated with 10 μM or 50 μM SW2_152F for 48 hours. Transcriptional fold change of genes (KLK3/TMPRSS2/AR/CBX2) were normalized to YWHAZ in LNCaP_NED cells with SW2_152F treatment or DMSO. FIG. 12G). LNCaP cells were treated with DMSO. LNCaP_NED cells were treated with DMSO, 10 μM GSK343 or 10 μM SW2_152F for 48 hours. Whole cell lysates were extracted for western blotting. FIG. 12H). LNCaP_NED cells were treated with DMSO or 10 μM SW2_152F for 4 hours before harvest. Binding of H3K27me3 and CBX2 at specific genomic sites (KLK3/TMPRSS2, e: enhancer, p: promoter) were evaluated using chromatin immunoprecipitation-qPCR. For all experiments in the figure, error bars represent SEM n=3 biological replicates, p-values were calculated using two-tailed Student's t-test, *=p<0.05, **=p<0.01, ***=p<0.001, ****=p<0.0001.
Cellular Activity of CBX2 Inhibitor in Neuroendocrine Differentiation of Prostate Cancer—Generation of a Prostate Cancer Neuroendocrine Differentiation (NED) System. To generate an in vitro model for NED, we cultured the androgen-sensitive prostate cancer cell line LNCaP in charcoal-stripped serum (CSS), which lacks androgens as well as other steroids. Upon treatment with CSS media, LNCaP cells adopted morphological characteristics of neuroendocrine-like cells (LNCaP_NED), which include dominant nucleus, limited cytoplasm, dendrites (FIG. 12A) and a decreased proliferation rate. To monitor transcriptional changes during androgen deprivation, we quantified the changes in expression of two NED markers (ENO2 and CHGA) and two AR target genes (KLK3 and TMPRSS2) by RT-qPCR during 15 days of androgen deprivation. […] To verify that LNCaP_NED cells become resistant to AR antagonists, we tested the effects of the AR antagonist enzalutamide (ENZA) on cell proliferation.

LNCaP cells = assay: LNCaP cell proliferation; assay type: cell-based; conditions: ENZA treatment

selectivity for CBX8 ChD over CBX7 ChD (CBX8 ChD): 20 fold | CBX8 binding at a known target, ChIP-qPCR [1]: completely unaffected
Molecule: C#CCNC(=O)[C@H](CO)NC(=O)[C@H](CCCCN(CC)CC)NC(=O)[C@@H](NC(=O)[C@@H](NC(=O)[C@H](Cc1ccc(O)c(Cl)c1)NC(=O)c1cc(C)on1)C(C)C)[C@@H](C)CC [KED97L] ({Isoxazole3carbonyl(5-Me)}-[Tyr(3-Cl)]VI[Lys(Et2)]S-{NH(propargyl)}; C-terminus assumed)
gene expression changes of a CBX8 regulated gene (CBX8 regulated gene): only slightly affected | THP1 cell viability (THP1 cells): only slightly affected

Molecule: SW2_152F-B: biotinylated SW2_152F (SEQ ID NO: 29) (PIKS-{PEG4′-biotin}; also: Pro1 alpha-amino modified, Lys3 side chain amino modified)
enrichment of endogenous CBX proteins by biotinylated ligand, immunoblot (endogenous CBX proteins): robustly enriched CBX2 and CBX8 with limited enrichment of other paralogs

Molecule: CNC(=O)c1ccc(N2C(=S)N(c3ccc(C#N)c(C(F)(F)F)c3)C(=O)C2(C)C)cc1F [enzalutamide, reference compound]
LNCaP_NED proliferation with AR antagonist (LNCaP_NED cells): no further decrease in proliferation | LNCaP proliferation with AR antagonist (LNCaP cells): highly decreased proliferation
